Reference: the supplement of paper PMC10307832

Tests used:
Assay in all cases: relative viability (nuclei count vs DMSO), 5 days (fraction); higher = more cells survive
[1] = compound: CN(C)CC1=CC(=CC=C1)N=C(C2=CC=CC=C2)C3=C(NC4=C3C=CC(=C4)C(=O)N(C)C)O
Summary of the method: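 Lung cancer cell lines received five library-drug doses (not always all listed) spaced by √10, pinned on vehicle-anchored 1536-well plates after an overnight stay at 37 °C. Five days later, with no medium change, nuclei were Hoechst-stained, imaged at 4× and counted with MetaXpress. Viability is treated-well nuclei relative to vehicle-well nuclei, as a median across plates. Passing plates had control CV below 25% and at least one doubling.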

[2] = compound: CN(C)CC1=CC(=CC=C1)N=C(C2=CC=CC=C2)C3=C(NC4=C3C=CC(=C4)C(=O)N(C)C)O + CC(=O)Nc1cccc(-n2c(=O)n(C3CC3)c(=O)c3c(Nc4ccc(I)cc4F)n(C)c(=O)c(C)c32)c1 [Trametinib] (partner 0.02 µM)
Summary of the method: (§1)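 One day after seeding in 1536-well plates, lung cancer cell lines were dosed by pin tool. Dosing was either single-drug or a fixed anchor-drug dose plus five library-drug doses (not always all listed) in √10 steps. After 5 days, nuclei were stained in one fix-and-stain step and counted on 4× images, and relative viability is the nuclei count of treated wells over that of vehicle wells, given as the median of duplicate plates.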

[3] = compound: CN(C)CC1=CC(=CC=C1)N=C(C2=CC=CC=C2)C3=C(NC4=C3C=CC(=C4)C(=O)N(C)C)O + N=C(N)NC(=N)NCCc1ccccc1 [Phenformin] (partner 250 µM)
Summary of the method: as §1

[4] = compound: CN(C)CC1=CC(=CC=C1)N=C(C2=CC=CC=C2)C3=C(NC4=C3C=CC(=C4)C(=O)N(C)C)O + COc1cccc2cc(-c3nc([C@H]4CC[C@H](C(=O)O)CC4)n4ncnc(N)c34)[nH]c12 [OSI-027] (partner 0.5 µM)
Summary of the method: as §1

| Cell Line | relative viability ([1]; 0.08 µM) | relative viability ([1]; 0.253 µM) | relative viability ([1]; 0.8 µM) | relative viability ([1]; 2.53 µM) | relative viability ([1]; 8 µM) | relative viability ([2]; first compound 0.08 µM) | relative viability ([2]; first compound 0.253 µM) | relative viability ([2]; first compound 0.8 µM) | relative viability ([2]; first compound 2.53 µM) | relative viability ([2]; first compound 8 µM) | relative viability ([3]; first compound 0.08 µM) | relative viability ([3]; first compound 0.253 µM) | relative viability ([3]; first compound 0.8 µM) | relative viability ([3]; first compound 2.53 µM) | relative viability ([3]; first compound 8 µM) | relative viability ([4]; first compound 0.08 µM) | relative viability ([4]; first compound 0.253 µM) | relative viability ([4]; first compound 0.8 µM) | relative viability ([4]; first compound 2.53 µM) | relative viability ([4]; first compound 8 µM) |
| --- | --- | --- | --- | --- | --- | --- | --- | --- | --- | --- | --- | --- | --- | --- | --- | --- | --- | --- | --- | --- |
| ChaGo-K-1 | 0.948 | 0.993 | 1.02 | 0.947 | 1.01 | 0.857 | 0.89 | 0.882 | 0.835 | 0.808 | 0.495 | 0.507 | 0.479 | 0.436 | 0.433 | 0.584 | 0.582 | 0.609 | 0.588 | 0.527 |
| EKVX | 0.981 | 0.919 | 0.819 | 1.05 | 0.996 | 0.32 | 0.389 | – | 0.432 | 0.438 | 0.239 | 0.251 | 0.221 | 0.247 | 0.241 | 0.718 | 0.726 | 0.781 | 0.764 | 0.739 |
| EMC-BAC-2 | 1.02 | 1.06 | 1.03 | 0.939 | 1.08 | 0.942 | 0.965 | 0.886 | 0.881 | 0.969 | 0.496 | 0.506 | 0.504 | 0.478 | 0.55 | 0.369 | 0.416 | 0.392 | 0.356 | 0.391 |
| EPLC-272H | 0.837 | 1 | 0.838 | 1.15 | 0.792 | 0.335 | 0.318 | 0.289 | 0.304 | 0.266 | 0.323 | 0.283 | 0.226 | 0.302 | 0.347 | 0.312 | 0.37 | 0.264 | 0.258 | 0.283 |
| H3255 | 0.942 | 1.02 | 0.889 | 1.02 | 1.04 | 0.64 | 0.642 | – | 0.66 | 0.692 | 0.44 | 0.356 | 0.338 | 0.392 | 0.371 | 0.649 | 0.592 | 0.698 | 0.682 | 0.632 |
| HARA | 0.953 | 0.946 | 0.742 | 0.986 | 1.08 | 0.715 | 0.632 | 0.622 | 0.59 | 0.84 | 0.413 | 0.454 | 0.384 | 0.412 | 0.373 | 0.525 | 0.553 | 0.397 | 0.482 | 0.319 |
| HCC-15 | 0.996 | 0.995 | 1.03 | 1.05 | 1.09 | 0.362 | 0.392 | 0.356 | 0.389 | 0.434 | 0.48 | 0.462 | 0.503 | 0.419 | 0.431 | 0.705 | 0.692 | 0.77 | 0.6 | 0.719 |
| HCC-44 | 1.08 | 0.987 | 1.03 | 0.949 | 1.05 | 1.04 | 1.04 | 1.08 | 1.04 | 1.12 | 0.179 | 0.4 | 0.185 | 0.192 | 0.176 | 0.67 | 0.584 | 0.6 | 0.392 | 0.533 |
